Article PMC12348157, “Neuroprotective Evaluation of Murraya Carbazoles: In Vitro and Docking Insights into Their Anti-AChE and Anti-Aβ Activities” (Molecules, 2025)
≈ marks a conversion by molar mass, not a printed value. Where “and” joins values, the source holds several entries; their conditions need not be identical. Equal entries are not always repeated. Where two headings read alike, the source gives them in different places.

Columns and labels:
[1] = molecular target: T1, Acetylcholinesterase (Electrophorus electricus, Type VI-S) (Electrophorus electricus, UniProt O42275); test: AChE inhibition kinetics (Lineweaver–Burk / Michaelis–Menten); assay type: biochemical; conditions: for Inhibition Type: Lineweaver–Burk plots
Method: The inhibition curves were plotted using linear regression (Lineweaver–Burk plot) on GraphPad Prism 10.3 (Figure 8).
The Km and Vmax values were calculated using a non-linear fit (Michaelis–Menten equation) (Table 6). The Ki value (inhibitor constant), the dissociation constant describing the binding affinity between the inhibitor and the enzyme, was calculated as described previously.
AChE inhibition was measured using Ellman’s method with slight modifications. The compounds were incubated with the enzyme and the substrate (10 mM ATC) for 15 min. Later, 15 mM DTNB was added, and the plate was incubated for 10 min at 37 °C. The absorbance was measured at 412 nm using a multimode reader (Synergy-H1 BioTek, Agilent, Santa Clara, CA, USA). Galantamine served as a positive control. Percent inhibition was computed using the equation: […]
Statistical analysis was performed by one-way ANOVA followed by Dunnett’s post hoc test. The data were registered as the mean ± SD of at least three experiments. The symbol *** represent p < 0.001 significance compared to the control. The IC50 values were determined using non-linear regression, and the Lineweaver–Burk plots were drawn using linear regression analysis by GraphPad Prism 10.3.

[2] = molecular target: T2, Aβ1-42 fibrillization (Homo sapiens, UniProt P05067); test: Thioflavin T (ThT) anti-Aβ fibrillization assay; assay type: biochemical; conditions: mean ± SD (n = 3); for Aβ fibrillization inhibition: samples 500 μg/mL, 24 h
T2 construct: Aβ1–42 was purchased from GenicBio Inc; purchased GenicBio Inc

[3] = molecular target: T1, Acetylcholinesterase (Electrophorus electricus, Type VI-S); test: biochemical; conditions: Electrophorus electricus AChE, mean of three experiments ± SD; read-out: IC50 anti-AChE activity (converted)
[4] = system: AChE; conditions: cited from earlier work
[5] = system: LPS-treated animal models; conditions: cited from earlier work
[6] = system: microglial cells; conditions: cited from earlier work
[7] = listed as 9-methyl-9H-carbazole-2-carbaldehyde
[8] = inhibitor 10 μg/mL, read-out: Ki
[9] = inhibitor 30 μg/mL, read-out: Ki
[10] = no inhibitor concentration stated, read-out: Ki value
[11] = pre-treatment, LPS-treated animal models

T2 sequence (P05067 672-713): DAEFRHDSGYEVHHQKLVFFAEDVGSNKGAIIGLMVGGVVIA
T1 sequence (O42275 24-633): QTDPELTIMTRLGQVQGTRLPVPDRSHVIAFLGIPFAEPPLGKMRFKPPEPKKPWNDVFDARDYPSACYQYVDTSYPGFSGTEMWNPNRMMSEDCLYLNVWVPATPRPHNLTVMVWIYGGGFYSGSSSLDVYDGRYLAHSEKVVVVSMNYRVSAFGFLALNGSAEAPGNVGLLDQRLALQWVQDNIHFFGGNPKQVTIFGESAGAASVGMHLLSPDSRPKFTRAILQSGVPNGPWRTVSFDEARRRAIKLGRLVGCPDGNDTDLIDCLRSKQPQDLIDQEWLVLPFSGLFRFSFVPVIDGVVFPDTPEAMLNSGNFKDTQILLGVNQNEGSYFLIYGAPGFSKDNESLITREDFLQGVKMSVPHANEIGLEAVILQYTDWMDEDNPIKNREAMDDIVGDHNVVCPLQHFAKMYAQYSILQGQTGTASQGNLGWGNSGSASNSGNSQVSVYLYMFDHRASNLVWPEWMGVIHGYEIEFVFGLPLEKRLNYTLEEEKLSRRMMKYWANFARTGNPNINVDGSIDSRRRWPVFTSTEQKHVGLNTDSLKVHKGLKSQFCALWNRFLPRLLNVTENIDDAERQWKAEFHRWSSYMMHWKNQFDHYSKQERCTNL

Row | Compound | Inhibition Type [1] | Inhibition Type [1, 7] | Vmax ([1]; inhibitor 10 μg/mL) [µmol/min/mg] | Ki [1, 8] [nM] | Vmax ([1]; inhibitor 30 μg/mL) [µmol/min/mg] | Ki [1, 9] [nM] | Ki [1, 10] | Aβ fibrillization inhibition [2] | Aβ fibrillization inhibition [2, 7] | IC50 [3] | IC50 anti-AChE, previously reported value [4] [µg/mL] | Inhibition Type ([1]; listed as mahanimbine) | Aβ1-40 levels ([5]; animal model) | Cognition ([5]; animal model) | ACh levels in the brain [5, 11] | AChE in the brain [5, 11] | Inhibition Type ([1]; listed as murrayafoline A) | Neuroprotective activity by reducing inflammation [6] | Inhibition Type ([1]; listed as murrayanol) | inhibition at 50 µM ([2]; phenol red 50 μM, read-out: Aβ fibrillization inhibition (positive control)) [%]
1 | Cn1c2ccccc2c2ccc(C=O)cc21 [9-Methyl-9H-carbazole-2-carbaldehyde, 9-methyl-9H-carbazole-2-carbaldehyde] | Competitive | Competitive inhibition | 0.3874 | 29200 | 0.3634 | 31400 | ~30000 nM | did not show any inhibition | no inhibition | 37600 nM | – | – | – | – | – | – | – | – | – | –
2 | COc1ccc2c3c1O[C@H]1C[C@@H](O)C=C[C@@]31CCN(C)C2 [Galantamine, galantamine] | – | – | – | – | – | – | – | – | – | – | 0.31 (≈ 1.08 µM) | – | – | – | – | – | – | – | – | –
3 | CC(C)=CCCC1(C)C=Cc2c(c(C)cc3c2[nH]c2ccccc23)O1 (centres unmarked) [Mahanimbine, mahanimbine] | Non-Competitive | – | 0.2098 | 599 | 0.2231 | 599 | 440 to 590 nM | 27.68 ± 2.71% | – | ~603 nM and 603 nM | – | non-competitive inhibition | reduced | improved cognition | improved | inhibited | – | – | – | –
4 | COc1cc(C)cc2c1[nH]c1ccccc12 [Murrayafoline A, murrayafoline A] | Competitive | – | 0.3826 | 58700 | 0.3753 | 61000 | ~60000 nM | 33.60 ± 0.55% | – | 67800 nM | – | – | – | – | – | – | Competitive inhibition | neuroprotective activity | – | –
5 | COc1cc2[nH]c3c(C/C=C(\C)CCC=C(C)C)c(O)ccc3c2cc1C [Murrayanol, murrayanol] | Competitive | – | 0.3756 | 444 | 0.3613 | 470 | ~450 nM and 450 nM and 440 to 590 nM | 40.83 ± 0.30% | – | ~550 nM and 523 nM | – | – | – | – | – | – | – | – | Competitive inhibition | –
6 | O=S1(=O)OC(c2ccc(O)cc2)(c2ccc(O)cc2)c2ccccc21 [phenol red, reference compound] | – | – | – | – | – | – | – | – | – | – | – | – | – | – | – | – | – | – | – | 67.86 ± 0.38
